Values belong to the compound of their own block, whether it stands above or below them.
How the values were obtained:
[1] = target: T1, cysteines in MDA-MB-231 and Ramos cells (Homo sapiens, UniProt P57764); test: Competitive isoTOP-ABPP in situ (fragment-treated cells); type: cell-based
T1 sequence (P57764 1-484): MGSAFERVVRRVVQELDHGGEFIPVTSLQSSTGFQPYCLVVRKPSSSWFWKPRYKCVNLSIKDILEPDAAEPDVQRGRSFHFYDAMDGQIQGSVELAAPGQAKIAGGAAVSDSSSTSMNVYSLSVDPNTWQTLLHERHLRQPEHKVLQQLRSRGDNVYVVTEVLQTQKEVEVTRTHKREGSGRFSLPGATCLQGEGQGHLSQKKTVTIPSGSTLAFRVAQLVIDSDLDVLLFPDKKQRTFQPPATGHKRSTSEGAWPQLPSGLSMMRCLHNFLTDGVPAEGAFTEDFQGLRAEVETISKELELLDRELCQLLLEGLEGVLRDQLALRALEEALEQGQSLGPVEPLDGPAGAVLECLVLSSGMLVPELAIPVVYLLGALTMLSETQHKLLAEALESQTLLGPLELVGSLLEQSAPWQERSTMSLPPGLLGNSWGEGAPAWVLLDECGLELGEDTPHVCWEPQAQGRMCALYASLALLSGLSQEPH

[2] = target: T2, cysteines in MDA-MB-231 and Ramos cells (Homo sapiens, UniProt Q9HCC0); test: as above; type: cell-based
T2 sequence (Q9HCC0 23-563): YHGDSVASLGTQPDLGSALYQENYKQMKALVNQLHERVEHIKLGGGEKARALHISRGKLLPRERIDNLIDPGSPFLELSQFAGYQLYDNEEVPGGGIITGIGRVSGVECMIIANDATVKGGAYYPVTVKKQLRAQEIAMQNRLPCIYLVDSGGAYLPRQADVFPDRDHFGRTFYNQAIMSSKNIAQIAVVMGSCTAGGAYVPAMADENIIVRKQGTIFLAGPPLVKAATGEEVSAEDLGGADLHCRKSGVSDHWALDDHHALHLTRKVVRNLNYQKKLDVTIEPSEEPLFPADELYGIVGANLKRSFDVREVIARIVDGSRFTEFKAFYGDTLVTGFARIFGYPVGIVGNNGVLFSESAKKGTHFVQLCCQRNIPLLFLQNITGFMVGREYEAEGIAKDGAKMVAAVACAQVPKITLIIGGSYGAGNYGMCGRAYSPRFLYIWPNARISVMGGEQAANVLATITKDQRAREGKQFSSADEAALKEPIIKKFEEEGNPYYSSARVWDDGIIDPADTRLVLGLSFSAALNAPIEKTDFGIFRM

ERCC3 C342 (P19447) = target: T3, ERCC3 C342 (P19447) (Homo sapiens, UniProt P19447); test: Competitive isoTOP-ABPP, cell lysates; type: binding; details: for R value (DMSO/fragment): in vitro; for isoTOP-ABPP ratio P19447_C342: invitro
T3 sequence (P19447 1-782): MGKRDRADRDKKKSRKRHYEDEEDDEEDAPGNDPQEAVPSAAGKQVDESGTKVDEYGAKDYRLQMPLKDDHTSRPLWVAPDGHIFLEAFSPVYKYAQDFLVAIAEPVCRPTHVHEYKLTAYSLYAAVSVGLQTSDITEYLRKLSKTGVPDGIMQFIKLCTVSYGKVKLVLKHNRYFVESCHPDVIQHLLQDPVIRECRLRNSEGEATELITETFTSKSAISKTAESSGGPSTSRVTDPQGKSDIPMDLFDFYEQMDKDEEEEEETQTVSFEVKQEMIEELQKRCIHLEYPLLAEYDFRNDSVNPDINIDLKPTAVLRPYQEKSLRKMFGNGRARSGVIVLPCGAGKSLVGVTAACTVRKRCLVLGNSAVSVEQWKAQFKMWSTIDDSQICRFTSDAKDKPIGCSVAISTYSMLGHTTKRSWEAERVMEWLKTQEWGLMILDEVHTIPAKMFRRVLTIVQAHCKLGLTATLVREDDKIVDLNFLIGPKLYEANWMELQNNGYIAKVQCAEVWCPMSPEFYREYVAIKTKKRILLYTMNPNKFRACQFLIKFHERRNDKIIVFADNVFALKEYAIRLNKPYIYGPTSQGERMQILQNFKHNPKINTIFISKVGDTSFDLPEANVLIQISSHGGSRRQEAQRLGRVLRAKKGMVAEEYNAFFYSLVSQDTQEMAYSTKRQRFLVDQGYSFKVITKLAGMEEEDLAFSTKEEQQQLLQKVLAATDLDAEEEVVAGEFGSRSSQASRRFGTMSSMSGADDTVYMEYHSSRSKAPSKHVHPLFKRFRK

[3] = target: T4, cysteines in MDA-MB-231 and Ramos cells (Homo sapiens, UniProt P11216); test: Competitive isoTOP-ABPP in situ (fragment-treated cells); type: cell-based
T4 sequence (P11216 1-843): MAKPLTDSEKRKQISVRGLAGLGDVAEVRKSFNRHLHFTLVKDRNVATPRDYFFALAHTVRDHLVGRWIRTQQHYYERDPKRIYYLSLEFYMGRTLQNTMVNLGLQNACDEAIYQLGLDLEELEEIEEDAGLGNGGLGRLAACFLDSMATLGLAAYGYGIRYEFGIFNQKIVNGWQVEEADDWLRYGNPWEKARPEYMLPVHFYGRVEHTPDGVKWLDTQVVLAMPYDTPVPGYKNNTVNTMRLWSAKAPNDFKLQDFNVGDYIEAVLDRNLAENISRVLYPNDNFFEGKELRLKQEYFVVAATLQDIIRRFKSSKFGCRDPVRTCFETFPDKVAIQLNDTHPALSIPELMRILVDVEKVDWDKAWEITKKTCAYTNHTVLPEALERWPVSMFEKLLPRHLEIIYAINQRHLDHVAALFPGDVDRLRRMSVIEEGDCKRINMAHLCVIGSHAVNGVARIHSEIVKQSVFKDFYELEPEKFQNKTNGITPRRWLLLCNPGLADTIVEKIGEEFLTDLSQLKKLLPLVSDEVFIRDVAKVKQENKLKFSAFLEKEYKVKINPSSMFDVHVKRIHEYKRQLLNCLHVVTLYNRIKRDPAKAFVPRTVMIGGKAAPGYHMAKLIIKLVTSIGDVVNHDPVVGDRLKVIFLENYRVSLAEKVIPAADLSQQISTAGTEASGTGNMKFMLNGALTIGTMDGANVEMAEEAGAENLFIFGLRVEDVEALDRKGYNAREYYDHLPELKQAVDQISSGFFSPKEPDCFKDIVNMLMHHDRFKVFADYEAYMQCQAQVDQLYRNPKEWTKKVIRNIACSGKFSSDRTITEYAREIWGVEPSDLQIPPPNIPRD

Compound: COc1ccc2c(c1)CCCN2C(=O)CCl [compound 2]
isoTOP-ABPP reactivity P57764_C268 GSDMD ([1]; 200 μM, insitu, 231): 20.0
isoTOP-ABPP reactivity Q9HCC0_C216 MCCC2 ([2]; 200 μM, insitu, 231): 4.6
R value (DMSO/fragment) (ERCC3 C342 (P19447); 500 μM, MDA-MB-231): 20.0

Compound: COc1ccc(C2CC(c3cccs3)=NN2C(=O)CCl)cc1 (centres unmarked) [compound 4]
isoTOP-ABPP reactivity P57764_C268 GSDMD ([1]; 100 μM in situ 231): 20.0
isoTOP-ABPP reactivity P11216_C326 PYGB ([3]; 100 μM in situ 231): 1.7
isoTOP-ABPP reactivity Q9HCC0_C216 MCCC2 ([2]; 100 μM in situ 231): 5.9
R value (DMSO/fragment) (ERCC3 C342 (P19447); 250 μM, MDA-MB-231): 1.6
R value (DMSO/fragment) (ERCC3 C342 (P19447); 250 μM, Ramos): 1.1

Compound: C=CC(=O)N(c1ccccc1)c1ccc(Br)cc1 [compound 5]
isoTOP-ABPP ratio P19447_C342 (ERCC3 C342 (P19447); 500 μM, ramos): 4.1

Compound: O=C(CCl)N1CCN(S(=O)(=O)c2ccccc2F)CC1 [compound 10]
isoTOP-ABPP ratio P57764_C268 ([1]; 200 μM, insitu, ramos): 2.2
isoTOP-ABPP ratio P11216_C326 ([3]; 200 μM, insitu, 231): 8.6
isoTOP-ABPP ratio Q9HCC0_C216 ([2]; 200 μM, insitu, 231): 2.3
isoTOP-ABPP ratio P19447_C342 (ERCC3 C342 (P19447); 500 μM, 231): 3.0

Compound: Cn1cc(S(=O)(=O)N2CCOCC2)cc1C(=O)NC(=O)CCl [compound 11]
isoTOP-ABPP ratio P57764_C268 ([1]; 100 μM in situ 231): 0.7
isoTOP-ABPP ratio P11216_C326 ([3]; 100 μM in situ 231): 0.8
isoTOP-ABPP ratio Q9HCC0_C216 ([2]; 100 μM in situ 231): 1.9
isoTOP-ABPP ratio P19447_C342 (ERCC3 C342 (P19447); 500 μM, 231): 2.9
isoTOP-ABPP ratio P19447_C342 (ERCC3 C342 (P19447); 500 μM, ramos): 1.5

Compound: O=C(CCl)NC(=O)NC12CC3CC(CC(C3)C1)C2 [compound 12]
isoTOP-ABPP ratio P11216_C326 ([3]; 200 μM, insitu, 231): 3.9
isoTOP-ABPP ratio Q9HCC0_C216 ([2]; 200 μM, insitu, 231): 20.0
isoTOP-ABPP ratio P19447_C342 (ERCC3 C342 (P19447); 500 μM, 231): 3.0

Compound: O=C(CCl)NCCc1c[nH]c2ccccc12 [compound 13]
isoTOP-ABPP ratio P57764_C268 ([1]; 200 μM, insitu, ramos): 1.5
isoTOP-ABPP ratio P11216_C326 ([3]; 200 μM, insitu, 231): 1.3
isoTOP-ABPP ratio Q9HCC0_C216 ([2]; 200 μM, insitu, ramos): 1.8
isoTOP-ABPP ratio P19447_C342 (ERCC3 C342 (P19447); 500 μM, 231): 1.0

Compound: O=C(CCl)N1CCC(C(O)(c2ccccc2)c2ccccc2)CC1 [compound 20]
isoTOP-ABPP ratio (reactivity profile), P19447_C342 (ERCC3 C342 (P19447); 500 μm in-vitro ramos_231): 2.6

Continued, in another order:

R value (DMSO/fragment) (ERCC3 C342 (P19447); 500 μM, MDA-MB-231): 12.1
Compound: O=C(CCl)Nc1cc(C(F)(F)F)cc(C(F)(F)F)c1 [compound 3]

isoTOP-ABPP ratio P19447_C342 (ERCC3 C342 (P19447); 500 μM, 231): 1.1
Compound: CNS(=O)(=O)C=Cc1ccc2c(ccn2Cc2ccccc2)c1 [compound 6]

isoTOP-ABPP reactivity P57764_C268 GSDMD ([1]; 200 μM, insitu, 231): 8.4
isoTOP-ABPP reactivity P11216_C326 PYGB ([3]; 200 μM, insitu, 231): 20.0
Compound: COc1cc2c(cc1OC)CN(C(=O)CCl)CC2 [compound 8]
isoTOP-ABPP reactivity Q9HCC0_C216 MCCC2 ([2]; 200 μM, insitu, 231): 3.9

isoTOP-ABPP reactivity P11216_C326 PYGB ([3]; 200 μM, insitu, 231): 2.6
Compound: O=C(CCl)N1CCC(Cc2ccccc2)CC1 [compound 9]

From patent US10670605B2, “Cysteine reactive probes and uses thereof” (The Scripps Research Institute, priority 2015, dated 2020)
